Assay results from patent publication US8629110B2, “Kv1.3 channel blocking substances for the treatment of diseases associated with intimal hyperplasia” (priority 2008, dated 2014).
Like-named read-outs stand apart in the source and are kept apart here.

Assays:
[1] = target: T1, Kv1.3 channel (Homo sapiens, UniProt P22001); settings: read-out: Affinity (Kd), cited from earlier work
[2] = system: Swine animal model of restenosis (coronary artery intima); experiment: Swine animal model for the treatment of restenosis: morphometric analysis of stented coronary arteries; type: in vivo, pigs
Experimental: (§1) The total weight of the polymer with the drug is about 500 μg and the drug:polymer ratio is 30%. The stents are packed individually, coded with a bar code (to do a double blind experiment) and sterilized with ethylene oxide.
(§2) 36 stents (12 with the polymer alone, 12 with PAP and 12 with ShK) are implanted in 12 young pigs (25-35 kg) in the anterior descending or circumflex branches of the left coronary artery or in the right coronary artery (at a proportion of 3 stents per animal). The animals recover from the operation and are sent back to the animal house where they receive a normal diet supplemented with aspirin (325 mg/d). Blood samples of the animals are obtained at 6, 12, 24, 48 and 96 hours to determine the plasma levels of PAP and ShK. At 7 (n=4) or 28 days (n=8) the animals are euthanized after performing a coronary arteriography for the quantitative analysis. In one animal of each group (7 and 28 days), after euthanasia the coronary arteries are dissected, the stent is removed and the samples are frozen in liquid nitrogen in order to determine different markers by means of Western blot of the tissues and to determine the levels of PAP and ShK in the arterial wall. In the rest of the animals, immediately after euthanasia the hearts are collected and the coronary arteries are fixed by perfusion of formalin at 10% for 30 minutes.
A morphometric analysis is performed measuring the degree of endothelialization of the stent area, the content of VSMCs in the intima and its thickness in relation to the thickness of the vessel and the lumen area (see FIG. 9).

[3] = target: T1, Kv1.3 channel; experiment: Whole-cell patch-clamp in HEK cell transfected with the Kv1.3 channel; type: cell-based; settings: 10 nM; potentials from +10 up to +80 mV; HEK cell transfected with Kv1.3
Description: FIG. 3. Example of the assay for determining if a substance is a Kv1.3 channel blocker. […] The amplitude of the maximum current evoked by each voltage pulse is depicted in panel B depending on the value of the membrane potential, with which the current (I) voltage (V) curve is constructed for the three situations.
To evaluate if a substance is capable of dose-dependently reducing the flow of current through Kv1.3 (i.e., if it is a Kv1.3 blocker). The currents through the Kv1.3 channels expressed in the heterologous system were studied by means of the patch-clamp technique in the whole-cell configuration. The currents were recorded at room temperature (21-25° C.). The cells, placed in a recording chamber located in an inverted microscope, were perfused with a physiological saline solution (in mM: 141 NaCl, 4.7 KCl, 1.2 MgCl2, 1.8 CaCl2, 10 glucose and 10 HEPES (pH 7.4 with NaOH). The recording pipettes were made from borosilicate glass (2.0 mm OD, WPI) with a pipette puller (Narishige PP-83) so that they have resistances between 2 and 5 MΩ upon filling them with an internal solution containing (in mM) 125 KCl, 4 MgCl2, 10 HEPES, 10 EGTA, 5 MgATP; (pH 7.2 with KOH). The whole-cell currents were recorded with an Axopatch 200 amplifier or the like, filtering at 2 kHz and sampling at 10 kHz. […]

[4] = system: VSMCs of the human uterine artery; experiment: Proliferation of VSMCs in culture (BrdU incorporation); type: cell-based; settings: 10 nM; 24 hours; medium with 5% serum
Experimental: FIG. 8. Effect of the Kv1.3 channel blockers on the proliferation of the VSMCs of the human uterine artery. […] Again, these experiments were conducted in cells in control medium and cells in which the margatoxin or PAP was added to the medium.
For the proliferation studies, the fraction of cells incorporating 5-bromo-2′-deoxyuridine (BrdU) was determined. BrdU is a thymidine analog which can be incorporated in its place for the synthesis phase of the cell cycle. The cells incorporating BrdU can be detected by means of observation under a fluorescence microscope upon using a monoclonal antibody against this molecule and a secondary antibody conjugated with a fluorochrome. The assay was performed with a commercial kit (5-Bromo-2′-deoxy-uridine labeling and Detection Kit I; Roche Applied Science, Germany). The human uterine artery smooth muscle cells were grown for 48 hours in glass coverslips 12 mm in diameter in DMEM medium supplemented with serum and antibiotics as has been previously described, until reaching a confluence close to 50%. […] To quantify the results, the number of cells positive for BrdU with respect to the total number of cells in the field (which is determined by labeling the nuclei with the DAPI fluorescent dye) is counted in 10-20 fields in each experiment.

[5] = Swine stent model: pharmacokinetics (blood and arterial tissue levels); type: in vivo, pigs
Experimental: as §1, §2

T1 sequence (P22001 whole entry): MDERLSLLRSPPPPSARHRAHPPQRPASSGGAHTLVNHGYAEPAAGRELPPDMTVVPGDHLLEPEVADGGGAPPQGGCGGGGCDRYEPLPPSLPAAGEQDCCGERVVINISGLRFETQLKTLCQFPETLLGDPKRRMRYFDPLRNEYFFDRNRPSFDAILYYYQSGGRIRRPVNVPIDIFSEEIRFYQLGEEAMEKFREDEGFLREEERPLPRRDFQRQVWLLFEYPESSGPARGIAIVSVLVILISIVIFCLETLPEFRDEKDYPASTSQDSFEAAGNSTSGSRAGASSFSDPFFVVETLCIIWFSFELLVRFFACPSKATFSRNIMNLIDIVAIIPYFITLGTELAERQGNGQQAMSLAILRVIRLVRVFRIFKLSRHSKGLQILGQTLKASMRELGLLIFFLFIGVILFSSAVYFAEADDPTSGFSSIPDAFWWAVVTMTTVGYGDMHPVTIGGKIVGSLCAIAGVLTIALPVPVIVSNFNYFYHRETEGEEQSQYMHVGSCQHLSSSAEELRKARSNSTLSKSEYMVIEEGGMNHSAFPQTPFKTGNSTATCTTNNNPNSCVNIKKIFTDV

Compound: CCCCC/N=c1\ccn(Cc2ccccc2)c2ccccc12 [CP339818]
- Kd [1]: 0.15 µM

Compound: COc1cc(CNC(=O)CCCC/C=C/C(C)C)ccc1O [Capsaicin]
- Kd ([1]; Kv1.3 channel): 26 µM

Compound: CCC[C@@H](O)/C=C/C=C/C=C/C#CC#CCCCO [Cicutotoxin]
- Kd ([1]; Kv1.3 channel): 18 µM

Compound: [Co+2] [Co^2+]
- Kd ([1]; Kv1.3 channel): 200 µM

Compound: C=C1C[C@@]2(O)[C@@H]3CC[C@@]4(C)[C@@H]5C=CC(=O)OC[C@]5(C(C)OC(C)=O)[C@@H](OC(C)=O)[C@@H](OC(C)=O)[C@@H]4[C@@]3(C)[C@H](OC(C)=O)[C@H](OC(C)=O)[C@@]2(C)C2(C(=O)OC)O[C@H]12 (some centres unmarked) [Correolide]
- Kd [1]: 0.09 µM

Compound: COc1ccc([C@@H]2Sc3ccccc3N(CCN(C)C)C(=O)[C@@H]2OC(C)=O)cc1 [Diltiazem]
- Kd ([1]; Kv1.3 channel): 27 µM

Compound: O=C(NCC1CCCCN1)c1cc(OCC(F)(F)F)ccc1OCC(F)(F)F (centres unmarked) [Flecainide]
- Kd ([1]; Kv1.3 channel): 60 µM

Compound: [Hg+2] [Hg^2+]
- Kd ([1]; Kv1.3 channel): 10 µM

Compound: [La+3] [La^3+]
- Kd ([1]; Kv1.3 channel): 20 µM

Compound: O=c1cc(-c2ccc(O)c(O)c2)oc2cc(O)cc(O)c12 [Luteolin]
- Kd ([1]; Kv1.3 channel): 50 µM

Compound: COC(=O)C1=C(C)NC(C)=C(C(=O)OC)C1c1ccccc1[N+](=O)[O-] [Nifedipine]
- Kd ([1]; Kv1.3 channel): 5 µM

Compound: CCOC(=O)C1=C(C)NC(C)=C(C(=O)OC)C1c1cccc([N+](=O)[O-])c1 (centres unmarked) [Nitrendipine]
- Kd ([1]; Kv1.3 channel): 5 µM

Compound: O=c1ccc2c(OCCCCOc3ccccc3)c3ccoc3cc2o1 [PAP-1]
- number of VSMCs in the intima ([2]; drug-coated stent versus control stent): significantly decreased
- intimal area ([2]; drug-coated stent, 5.07 mm^2 in control): 2.23 mm^2
- degree of stenosis ([2]; drug-coated stent, 45% in control): 27%
- reduction of the current [3]: 80-85%
- fraction of cells labeled with BrdU (proliferation) [4]: a lower number of labeled nuclei is observed
- blood levels, maximal ([5]; 6 hours after implanting the stent, stent with 200 μg drug): about 3 ng/ml
- content in the arterial tissue ([5]; at 7 days): 97 ng/artery
- content in the arterial tissue ([5]; at 28 days): 30 ng/artery

Compound: c1ccc(C2(N3CCCCC3)CCCCC2)cc1 [Phencyclidine]
- Kd ([1]; Kv1.3 channel): 5 µM

Compound: CC(=O)[C@H]1CC[C@H]2[C@@H]3CCC4=CC(=O)CC[C@]4(C)[C@H]3CC[C@]12C [Progesterone]
- Kd ([1]; Kv1.3 channel): 30 µM

Compound: C=C[C@H]1C[N@@]2CC[C@H]1C[C@H]2[C@H](O)c1ccnc2ccc(OC)cc12 [Quinine]
- Kd ([1]; Kv1.3 channel): 14 µM

Compound: C=C(C)[C@]12C[C@@H](C)[C@@]34O[C@](Cc5ccccc5)(O[C@@H]1[C@@H]3C=C(COC(=O)Cc1ccc(O)c(OC)c1)C[C@]1(O)C(=O)C(C)=C[C@@H]41)O2 [Resiniferatoxin]
- Kd ([1]; Kv1.3 channel): 3 µM

Compound: CC[C@H](C)[C@@H]1NC(=O)[C@@H](NC(=O)[C@H](CO)NC(=O)[C@@H](N)CCCNC(=N)N)CSSC[C@@H](C(=O)O)NC(=O)[C@H]([C@@H](C)O)NC(=O)CNC(=O)[C@@H]2CSSC[C@@H]3NC(=O)[C@H](CCC(N)=O)NC(=O)[C@H](Cc4ccccc4)NC(=O)[C@H](C)NC(=O)[C@H]([C@@H](C)O)NC(=O)[C@H](CSSC[C@H](NC(=O)[C@H](Cc4ccccc4)NC(=O)[C@H](CO)NC(=O)[C@H](CC(C)C)NC(=O)[C@H](CCCNC(=N)N)NC(=O)[C@H](Cc4ccc(O)cc4)NC(=O)[C@H](CCCCN)NC(=O)[C@H](CCSC)NC(=O)[C@H](CO)NC(=O)[C@H](Cc4cnc[nH]4)NC(=O)[C@H](CCCCN)NC3=O)C(=O)N[C@@H](CCCNC(=N)N)C(=O)N[C@@H](CCCCN)C(=O)N[C@@H]([C@@H](C)O)C(=O)N2)NC(=O)[C@H](CCCNC(=N)N)NC(=O)[C@H](CO)NC(=O)[C@H](CCCCN)NC(=O)[C@@H]2CCCN2C(=O)[C@H]([C@@H](C)CC)NC(=O)[C@H]([C@@H](C)O)NC(=O)[C@H](CC(=O)O)NC1=O [ShK]
- level at 96 h ([5]; pig, in vivo, 200 ug per stent, at 4 days, below the limit of detection): < 0.2 ng/mL

Compound: CC[N+](CC)(CC)CC [TEA, tetraethylammonium chloride]
- Kd ([1]; Kv1.3 channel): 10000 µM

Compound: CN1CCN(CCCN2c3ccccc3Sc3ccc(C(F)(F)F)cc32)CC1 [Trifluoperazine]
- Kd ([1]; Kv1.3 channel): 20 µM

Compound: COc1ccc(CCCN2CCC(COC(c3ccccc3)c3ccccc3)CC2)cc1 [UK78282]
- Kd ([1]; Kv1.3 channel): 0.2 µM

Compound: [Zn+2] [Zn^2+]
- Kd ([1]; Kv1.3 channel): 200 µM
